Results reported in the NIST ThermoML archive (doi:10.1021/je901020a).

Tests used:
[1] = xn = mol fraction of the nth substance listed; conditions: 101 kPa, Liquid; for speed of sound: Pulse-echo method
[2] = refractive index (Na D-line) (dimensionless); xn = mol fraction of the nth substance listed; conditions: 101 kPa, Liquid, Standard Abbe refractometry

CC1CCCCC1 [methylcyclohexane] + Cc1ccccc1C
Conditions	mass density, [1] [kg/m3]	refractive index, [2]	speed of sound, [1] [m/s]
298.15 K, x1 = 0.0558	868.7	1.49758	1340
298.15 K, x1 = 0.0973	863.5	1.49375	1333
298.15 K, x1 = 0.1875	852.9	1.48587	1318
298.15 K, x1 = 0.2979	839.7	1.47605	1300
298.15 K, x1 = 0.4084	827	1.46659	1283
298.15 K, x1 = 0.4965	817.1	1.45929	1271
298.15 K, x1 = 0.5946	806.3	1.45128	1259
298.15 K, x1 = 0.6948	795.5	1.44332	1246
298.15 K, x1 = 0.7944	785.2	1.43568	1235
298.15 K, x1 = 0.8912	775.6	1.42852	1225
298.15 K, x1 = 0.9497	769.9	1.42429	1219
298.15 K, x1 = 1	765	1.42062	1215
313.15 K, x1 = 0.049	856.8	1.49036	1281
313.15 K, x1 = 0.0983	850.8	1.48589	1272
313.15 K, x1 = 0.1972	838.9	1.47705	1255
313.15 K, x1 = 0.2832	828.7	1.46962	1241
313.15 K, x1 = 0.403	814.8	1.45951	1222
313.15 K, x1 = 0.5001	803.8	1.4514	1208
313.15 K, x1 = 0.598	793	1.44349	1195
313.15 K, x1 = 0.6977	782.3	1.43558	1182
313.15 K, x1 = 0.7947	772.2	1.4281	1171
313.15 K, x1 = 0.9013	761.5	1.42003	1160
313.15 K, x1 = 0.9474	756.9	1.4165	1154
313.15 K, x1 = 1	751.9	1.41274	1150
